Measurements as given in article PMC7961380, “A Systematic Study of the In Vitro Pharmacokinetics and Estimated Human In Vivo Clearance of Indole and Indazole-3-Carboxamide Synthetic Cannabinoid Receptor Agonists Detected on the Illicit Drug Market” (Molecules, 2021).
Where two headings read alike, the source gives them in different places.

Assays:
[1] = Plasma protein binding by equilibrium dialysis; format: in vitro ADME, human; settings: human, pooled human plasma, pH 7.4, equilibrium dialysis 5 h, 37 °C
[2] = Metabolic stability, pooled human liver microsome incubations; settings: for Predicted In Vivo Hepatic Clearance, CLH: from pHLM CLint, well-stirred model with plasma fu, Q 21 mL min^−1 kg^−1; for CLint scaled at 0.5 µM / half-life at 0.5 µM: human, microsomes; for CLint scaled at 0.5 µM: pH 7.4, Intrinsic clearance; for half-life at 0.5 µM: pH 7.4, T1/2 (min), pHLM 0.5 mg mL^−1, 0.5 µM, NADPH, 37 °C; for half-life at 0.5 µM / Microsomal Intrinsic Clearance, CLint micr: n ≥ 3 ± SD
[3] = Short-term plasma stability with and without esterase inhibitors; settings: human, pH 7.4, Parent Compound Remaining (%), 3 h, 37 °C
[4] = Metabolic stability, pooled human cryopreserved hepatocyte incubations; settings: human, hepatocytes; for CLint scaled at 0.5 µM: Intrinsic clearance, pHHeps, alternative hepatocyte cell density 99x10^6 hepatocytes per gram liver; for half-life at 0.5 µM: T1/2 (min), pHHeps 0.25 million cells mL^−1, 0.5 µM, 37 °C, n ≥ 3 ± SD
[5] = tested on: pooled human cryopreserved hepatocytes (pHHeps); assay: as above; settings: for Predicted In Vivo Hepatic Clearance, CLH: from pHHeps CLint, well-stirred model with plasma fu, Q 21 mL min^−1 kg^−1
[6] = 10 µg mL^−1, read-out: PPB (%) (converted)
[7] = plasma, read-out: Fraction Unbound (fu)
[8] = pHLM, alternative microsomal scaling factor 32 mg microsomal protein per gram liver
[9] = pHLM, alternative microsomal scaling factor 45 mg microsomal protein per gram liver
[10] = pHLM, scaling factor 32 mg microsomal protein per gram liver
[11] = pHLM, scaling factor 45 mg microsomal protein per gram liver
[12] = plasma, No Esterase Inhibitors, pH 7.4, pooled human plasma
[13] = pHHeps, 99x10^6 hepatocytes per gram liver

| Compound | fraction unbound at 5 h, 10 µg mL^−1 [1, 6] | fraction unbound at 5 h, 10 µg mL^−1 [1, 7] | Predicted In Vivo Hepatic Clearance, CLH [2] | Hepatic extraction ratio, EH ([2]; from pHLM incubations) | CLint scaled at 0.5 µM [2, 8] | CLint scaled at 0.5 µM [2, 9] | half-life at 0.5 µM [2] | % parent compound remaining, Average ([2]; pHLM, 3 min) | % parent compound remaining, Average ([2]; pHLM, 6 min) | % parent compound remaining, Average ([2]; pHLM, 9 min) | % parent compound remaining, Average ([2]; pHLM, 15 min) | % parent compound remaining, Average ([2]; pHLM, 30 min) | Microsomal Intrinsic Clearance, CLint micr ([2]; pHLM) | Hepatic extraction ratio, EH [2, 10] | Predicted in vivo hepatic clearance, CLH [2, 10] | Hepatic extraction ratio, EH [2, 11] | Predicted in vivo hepatic clearance, CLH [2, 11] | remaining at 3 h, 5 µM [3, 12] | CLint scaled at 0.5 µM [4] | half-life at 0.5 µM [4] | also measured |
| --- | --- | --- | --- | --- | --- | --- | --- | --- | --- | --- | --- | --- | --- | --- | --- | --- | --- | --- | --- | --- | --- |
| C=CCCCn1cc(C(=O)N[C@H](C(=O)OC)C(C)(C)C)c2ccccc21 [(S)-MDMB-4en-PICA (12), methyl 3,3-dimethyl-2-[1-(pent-4-en-1-yl)-1H-indole-3-carboxamido]butanoate] | 0.035 | 0.035 ± 0.0031 | 5.69 ± 0.61 mL/min/kg | 0.27 ± 0.029 | 137 mL/min/kg | 192 mL/min/kg | 8.5 ± 1.3 min | 77.5% | 62.6% | 50.2% | 28.5% | 5.6% | 0.166 ± 0.024 mL min^−1 mg Microsomal Protein^−1 | 0.18 ± 0.022 | 3.88 mL/min/kg | 0.24 ± 0.027 | 5.07 ± 0.57 mL/min/kg | 91.5 ± 8.6% | 197 mL/min/kg | 37 ± 6.9 min | remaining at 3 h, 5 µM ([3]; Esterase Inhibitors, pH 7.4, BNPP and PMSF 500 µM each): 89.4 ± 2.3%; Predicted In Vivo Hepatic Clearance, CLH [5]: 5.46 ± 0.78 mL/min/kg; Hepatic extraction ratio, EH ([5]; from pHHeps incubations): 0.26 ± 0.037; Hepatic extraction ratio, EH [5, 13]: 0.25; Predicted in vivo hepatic clearance, CLH [5, 13]: 5.15 mL/min/kg; % parent compound remaining, Average ([5]; pHHeps, 3 min): 93.4%; % parent compound remaining, Average ([5]; pHHeps, 6 min): 83.7%; % parent compound remaining, Average ([5]; pHHeps, 9 min): 80.4%; % parent compound remaining, Average ([5]; pHHeps, 15 min): 74.0%; % parent compound remaining, Average ([5]; pHHeps, 30 min): 51.6%; % parent compound remaining, Average ([5]; pHHeps, 45 min): 34.2%; % parent compound remaining, Average ([5]; pHHeps, 60 min): 25.0% |
| C=CCCCn1nc(C(=O)N[C@H](C(=O)OC)C(C)(C)C)c2ccccc21 [(S)-MDMB-4en-PINACA (5), methyl 3,3-dimethyl-2-[1-(pent-4-en-1-yl)-1H-indazole-3-carboxamido] butanoate] | 0.01 | 0.01 ± 0.0001 | 2.66 ± 0.37 mL/min/kg | 0.13 ± 0.018 | 186 mL/min/kg | 262 ± 42.3 mL/min/kg | 6.3 ± 1 min | 72.3% | 52.7% | 36.7% | 18.6% | 3.1% | 0.226 ± 0.037 mL min^−1 mg Microsomal Protein^−1 | 0.08 ± 0.012 | 1.71 mL/min/kg | 0.11 ± 0.016 | 2.32 ± 0.33 mL/min/kg | 94.8 ± 0.7% | 632 mL/min/kg | 12 ± 2.6 min | remaining at 3 h, 5 µM ([3]; plasma, Esterase Inhibitors, pH 7.4, BNPP and PMSF 500 µM each): 89 ± 3.3%; Predicted In Vivo Hepatic Clearance, CLH [5]: 5.11 ± 0.89 mL/min/kg; Hepatic extraction ratio, EH ([5]; from pHHeps incubations): 0.24 ± 0.042; Hepatic extraction ratio, EH [5, 13]: 0.23; Predicted in vivo hepatic clearance, CLH [5, 13]: 4.82 mL/min/kg; % parent compound remaining, Average ([5]; pHHeps, 3 min): 79.7%; % parent compound remaining, Average ([5]; pHHeps, 6 min): 69.0%; % parent compound remaining, Average ([5]; pHHeps, 9 min): 56.7%; % parent compound remaining, Average ([5]; pHHeps, 15 min): 41.1%; % parent compound remaining, Average ([5]; pHHeps, 30 min): 17.1%; % parent compound remaining, Average ([5]; pHHeps, 45 min): 7.6%; % parent compound remaining, Average ([5]; pHHeps, 60 min): 3.4% |
